In patent US20260130933A1, “PHARMACEUTICAL COMPOSITION FOR PREVENTION OR TREATMENT OF NEPHROPATHY AND/OR DIABETES MELLITUS, COMPRISING ENAVOGLIFLOZIN” (DAEWOONG PHARMACEUTICAL CO., LTD., priority 2022, published 2026):
Several values for one entry are separate records, joined by “and”; a condition that tells them apart may be missing. Equal entries are not always repeated.

Experiment: Example 2: phase 3 trial, enavogliflozin 0.3 mg vs dapagliflozin 10 mg once a day for 24 weeks added to metformin in patients with type 2 diabetes (same efficacy, exploratory and safety endpoints)
Assay type: in vivo, human
Method: Subjects who met the inclusion/exclusion criteria were administered a placebo of the clinical trial drug under single-blind (subject blinding) conditions during a 2-week run-in period while continuing to receive metformin. […] The randomized subjects were administered two tablets of the clinical trial drug for each administration group once a day, and then visited the institution at weeks 6, 12, 18, and 24 during the 24-week administration period to conduct efficacy and safety evaluations.
• 1. Change in HbA1c at week 24 after administration of clinical trial drug compared to Visit 2 (randomization)
• 1. Change in HbA1c at each time point of weeks 6, 12, and 18 after administration of clinical trial drug compared to Visit 2 (randomization) • 2. Change in FPG at each time point of weeks 6, 12, 18, and 24 after administration of clinical trial drug compared to Visit 2 (randomization) • 3. Proportion of subjects achieving HbA1c<7% at each time point of weeks 6, 12, 18, and 24 after administration of clinical trial drug • 4. Proportion of subjects achieving HbA1c<6.5% at each time point of weeks 6, 12, 18, and 24 after administration of clinical trial drug • 5. Proportion of subjects achieving therapeutic response (HbA1c change (HbA1c at Visit 2-HbA1c at each evaluation time point)>0.5% or HbA1c<7% at each evaluation time point compared to Visit 2 (randomization)) at each time point of weeks 6, 12, 18 and 24 after administration of clinical trial drug
• 1. Change in fasting c-peptide at each time point of weeks 6, 12, 18, and 24 after administration of clinical trial drug compared to Visit 2 (randomization) • 2. Change in body weight at each time point of weeks 6, 12, 18, and 24 after administration of clinical trial drug compared to Visit 2 (randomization) • 3. Change in fasting lipid concentration (total cholesterol, LDL-C, HDL-C, and triglycerides) at each time point of weeks 6, 12, 18, and 24 after administration of clinical trial drug compared to Visit 2 (randomization) • 4. Changes in systolic or diastolic blood pressure at each time point of weeks 6, 12, 18, and 24 after administration of clinical trial drug compared to Visit 2 (randomization) • 5. Changes in β-cell function and insulin resistance measured by HOMA-β and HOMA-IR at each time point of weeks 6, 12, 18, and 24 after administration of clinical trial drug compared to Visit 2 (randomization) • 6. Changes in renal function-related indicators (UACR, UGCR) measured by UACR at each time point of weeks 6, 12, 18, and 24 after administration of clinical trial drug compared to Visit 2 (randomization) • 7. Changes in obesity-related indicators (adiponectin, leptin) at each time point of weeks 6, 12, 18, and 24 after administration of clinical trial drug compared to Visit 2 (randomization)

[1] = week 12, per-protocol set, enavogliflozin 0.3 mg, dapagliflozin 10 mg
[2] = week 18, listed as enavogliflozin
[3] = week 18, modified per-protocol set 1, enavogliflozin 0.3 mg, dapagliflozin 10 mg
[4] = week 18, per-protocol set, enavogliflozin 0.3 mg vs dapagliflozin 10 mg
[5] = week 18, per-protocol set, enavogliflozin 0.3 mg, dapagliflozin 10 mg

OC[C@H]1O[C@@H](c2cc(Cc3ccc(C4CC4)cc3)c(Cl)c3c2CCO3)[C@H](O)[C@@H](O)[C@@H]1O [Enavogliflozin, (2S,3R,4R,5S,6R)-2-(7-chloro-6 (4-cyclopropylbenzyl)-2,3-dihydrobenzofuran-4-yl)-6-(hydroxymethyl)tetrahydro-2H-pyran-3,4,5-triol]
FPG, Median [1]: 115.50 mg/dL
HbA1c, Mean (SD) [1]: 6.97%
HbA1c, Median [1]: 6.83%
Subjects achieving HbA1c target of <6.5%, (%) [1]: (15.96) %
Subjects achieving therapeutic glycemic response, (%) [1]: (88.30) %
body weight, Mean (SD) [1]: 67.44(11.05) kg
body weight, Median [1]: 65.70 kg
fasting c-peptide, Mean (SD) [1]: 0.65(0.28) ng/mL
fasting c-peptide, Median [1]: 0.61 ng/mL
FPG change from baseline, LS mean (SE) (week 18): −33.44(1.60) mg/dL
HOMA-IR change from baseline, LS mean (SE) (week 18): −1.79(0.11)
HOMA-β change from baseline, LS mean (SE) (week 18): 10.97(3.06)
HbA1c change from baseline, LS mean (SE) (week 18): −0.74(0.06) % p
LDL-C change from baseline, LS mean (SE) (week 18): 1.42(1.86) mg/dL
Subjects achieving HbA1c target of <7% (week 18): (62.64) %
Subjects achieving HbA1c<6.5% (week 18): 9.89%
Subjects achieving therapeutic response (HbA1c change >0.5% or HbA1c<7%) (week 18): 80.22%
UACR change from baseline, LS mean (SE) (week 18): −23.05(5.06) g/kg
diastolic blood pressure change from baseline, LS mean (SE) (week 18): −4.80(0.78) mmHg
fasting c-peptide change from baseline, LS mean (SE) (week 18): −0.07(0.18) ng/ml
leptin change from baseline, LS mean (SE) (week 18): −2.49(0.52) ng/mL
systolic blood pressure change from baseline, LS mean (SE) (week 18): -6.69 mmHg
FPG change from baseline, LS mean difference (week 18, vs dapagliflozin): -2.31 mg/dL
HDL-C change from baseline, LS mean difference (week 18, vs dapagliflozin): -0.62 mg/dL
HOMA-IR change from baseline, LS mean difference (week 18, vs dapagliflozin): −0.32
HOMA-β change from baseline, LS mean difference (week 18, vs dapagliflozin): −2.53
HbA1c change from baseline, LS mean difference (week 18, vs dapagliflozin): −0.05 % p
LDL-C change from baseline, LS mean difference (week 18, vs dapagliflozin): -1.15 mg/dL
Odds ratio for achieving HbA1c<6.5% (week 18, vs dapagliflozin): 0.31
Odds ratio for achieving HbA1c<7% (week 18, vs dapagliflozin): 1.29
Odds ratio for achieving therapeutic response (week 18, vs dapagliflozin): 1.58
UACR change from baseline, LS mean difference (week 18, vs dapagliflozin): −10.10
UGCR change from baseline, LS mean difference (week 18, vs dapagliflozin): 18.25 mg/mg
body weight change from baseline, LS mean difference (week 18, vs dapagliflozin): 0.02 kg
diastolic blood pressure change from baseline, LS mean difference (week 18, vs dapagliflozin): −0.70 mmHg
fasting c-peptide change from baseline, LS mean difference (week 18, vs dapagliflozin): -0.02 ng/mL
leptin change from baseline, LS mean difference (week 18, vs dapagliflozin): -1.26 ng/mL
systolic blood pressure change from baseline, LS mean difference (week 18, vs dapagliflozin): −0.72 mmHg
total cholesterol change from baseline, LS mean difference (week 18, vs dapagliflozin): -1.77 mg/dL
triglyceride change from baseline, LS mean difference (week 18, vs dapagliflozin): -6.87 mg/dL
Subjects achieving HbA1c target of <7% [2]: 62.64%
UGCR change from baseline, LS mean (SE) [2]: 60.97(2.13) mg/mg and 42.72(2.15) mg/mg
Change from baseline in total cholesterol, ANCOVA LS mean difference (week 18, modified per-protocol set 1, enavogliflozin 0.3 mg vs dapagliflozin 10 mg): -1.77 mg/dL
Change from baseline in Total cholesterol, ANCOVA LS mean (SE) [3]: 7.80(2.16) mg/dL
Change from baseline in Total cholesterol, Mean (SD) [3]: 6.23(16.54) mg/dL
Change from baseline in total cholesterol, Median [3]: 6.00 mg/dL
fasting Total cholesterol, Mean (SD) [3]: 156.99(32.54) mg/dL
fasting Total cholesterol, Median [3]: 149.00 mg/dL
Change from baseline in FPG, ANCOVA LS mean difference [4]: -2.31 mg/dL
Change from baseline in HbA1c, ANCOVA LS mean difference [4]: −0.05 % p
Change from baseline in body weight, ANCOVA LS mean difference [4]: 0.02 kg
Change from baseline in fasting c-peptide, ANCOVA LS mean difference [4]: -0.02 ng/mL
Odds ratio for achieving HbA1c target of <6.5%, logistic regression model [4]: 0.31
Odds ratio for achieving therapeutic glycemic response, logistic regression model [4]: 1.58
Change from baseline in FPG, ANCOVA LS mean (SE) [5]: -33.44 mg/dL
Change from baseline in FPG, Mean (SD) [5]: -31.78 mg/dL
Change from baseline in FPG, Median [5]: -31.00 mg/dL
Change from baseline in HbA1c, ANCOVA LS mean (SE) [5]: −0.74 % p
Change from baseline in HbA1c, Mean (SD) [5]: −0.71 % p
Change from baseline in HbA1c, Median [5]: −0.56 % p
Change from baseline in body weight, ANCOVA LS mean (SE) [5]: −3.14(0.26) kg
Change from baseline in body weight, Mean (SD) [5]: −3.17(2.68) kg
Change from baseline in body weight, Median [5]: -3.20 kg
Change from baseline in fasting c-peptide, ANCOVA LS mean (SE) [5]: −0.08(0.02) ng/mL
Change from baseline in fasting c-peptide, Mean (SD) [5]: −0.07(0.18) ng/mL
Change from baseline in fasting c-peptide, Median [5]: -0.07 ng/mL
FPG, Mean (SD) [5]: 112.95 mg/dL
FPG, Median [5]: 113.00 mg/dL
HbA1c, Mean (SD) [5]: 7.02%
HbA1c, Median [5]: 6.89%
